O=c1c(-c2ccc(O)cc2)coc2cc(O[C@@H]3O[C@H](CO)[C@@H](O)[C@H](O)[C@H]3O)cc(O)c12
solubility (mole fraction)
Settings	283.2 K	293.2 K	303.2 K	313.2 K	323.2 K
in THF	8.67e-05	0.000101	0.000123	0.000149	0.000186
in acetone	0.000354	0.000361	0.000369	0.000382	0.000388
in acetonitrile	1.15e-06	1.61e-06	2.15e-06	2.62e-06	3.12e-06
in chloroform	2.86e-07	3.37e-07	4.14e-07	5.02e-07	6.54e-07
in cyclohexane	2.66e-07	4.59e-07	6.56e-07	9.11e-07	1.25e-06
in ethanol	2.63e-05	2.85e-05	3.28e-05	3.72e-05	4.38e-05
in ethyl acetate	1.17e-06	1.52e-06	1.99e-06	2.55e-06	3.25e-06
in isopropanol	7.95e-06	1.05e-05	1.34e-05	1.71e-05	2.2e-05
in methanol	5e-05	5.54e-05	5.91e-05	6.44e-05	7.04e-05
in n-butanol	4.78e-06	8.48e-06	1.25e-05	1.56e-05	1.91e-05
in n-hexane	3.64e-07	4.87e-07	6.47e-07	8.58e-07	1.14e-06

From BigSolDB 2.1
